In ChEMBL document CHEMBL1142372, “Design, synthesis, and structure-activity relationship studies of 4-quinolinyl- and 9-acrydinylhydrazones as potent antimalarial agents” (J Med Chem, 2008):
Calls of active or inactive are those of the source. The rule behind the calls is not given here.

How the values were obtained:
Plasmodium falciparum [1] = test: Antiplasmodial activity against chloroquine-sensitive Plasmodium falciparum D10 by [3H]hypoxanthine incorporation; type: functional, organism-based
Plasmodium falciparum [2] = test: Antiplasmodial activity against chloroquine-resistant Plasmodium falciparum W2 by [3H]hypoxanthine incorporation; type: functional, organism-based
Plasmodium falciparum [3] = test: Antiplasmodial activity against chloroquine-sensitive Plasmodium falciparum 3D7 by [3H]hypoxanthine incorporation; type: functional, organism-based
Plasmodium falciparum [4] = test: Antiplasmodial activity against chloroquine-resistant Plasmodium falciparum K1 by [3H]hypoxanthine incorporation; type: functional, organism-based
KB = test: Cytotoxicity against human KB cells; type: functional; conditions: read-out: ED50 (the source's name)
Plasmodium berghei [5] = test: Antimalarial activity against Plasmodium berghei ANKA infected BALB/c mice (Mus musculus) as reduced parasitaemia at 30 mg/kg intraperitoneal dose after 4 days; type: functional; parameters: scale not given: the % may be the effect or the level left
Mus musculus [6] = test: Survival of Plasmodium Berghei ANKA infected BALB/c mice (Mus musculus) at 30 mg/kg, intraperitoneally; type: functional, organism-based; parameters: dose 30 mg/kg
[7] = target: T1, Histidine-rich protein PFHRP-II (Plasmodium falciparum) (UniProt P05227); test: Inhibition of beta-hematin formation by BHIA; type: functional
T1 sequence (whole entry): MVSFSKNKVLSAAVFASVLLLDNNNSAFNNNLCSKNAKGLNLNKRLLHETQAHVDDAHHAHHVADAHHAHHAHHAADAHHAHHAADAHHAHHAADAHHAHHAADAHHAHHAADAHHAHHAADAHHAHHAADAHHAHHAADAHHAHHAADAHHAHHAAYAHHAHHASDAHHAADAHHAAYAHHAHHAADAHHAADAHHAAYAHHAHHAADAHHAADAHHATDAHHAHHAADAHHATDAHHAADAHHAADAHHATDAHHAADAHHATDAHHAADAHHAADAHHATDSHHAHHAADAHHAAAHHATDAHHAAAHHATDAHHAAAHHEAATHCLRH

Plasmodium berghei [8] = test: Reduced parasitemia in Plasmodium berghei ANKA infected BALB/c mice (Mus musculus) at 10 mg/kg intraperitoneal dose after 4 days; type: functional; parameters: scale not given: the % may be the effect or the level left
Mus musculus [9] = test: Survival of Plasmodium Berghei ANKA infected BALB/c mice (Mus musculus) at 10 mg/kg, intraperitoneally; type: functional, organism-based; parameters: dose 10 mg/kg

Row | Structure (SMILES) | IC50 (Plasmodium falciparum [1]) | IC50 (Plasmodium falciparum [2]) | IC50 (Plasmodium falciparum [3]) | IC50 (Plasmodium falciparum [4]) | EC50 (KB) | Activity (Plasmodium berghei [5]) | Activity (Mus musculus [6]) | Activity [7] | Activity (Plasmodium berghei [8]) | Activity (Mus musculus [9])
1 | COc1ccc2nc(C)cc(N/N=C/c3ccc4c(c3)OCO4)c2c1 | 132 nM | 184 nM | 507 nM | 149 nM | – | – | – | – | – | –
2 | Clc1ccc2c(N/N=C/c3cnc[nH]3)ccnc2c1 | 453 nM | 140 nM | 152 nM | 626 nM | 29100 nM | – | – | – | – | –
3 | CCN(CC)Cc1ccc(/C=N/Nc2ccnc3cc(Cl)ccc23)cc1 | 48.3 nM | 57.7 nM | 2.7 nM | 27.2 nM | – | – | – | – | – | –
4 | O=S(=O)(NNc1ccnc2cc(Cl)ccc12)c1cccc2ccccc12 | 4270 nM | 2530 nM | 2160 nM | 599 nM | – | – | – | – | – | –
5 | Cc1ccc(S(=O)(=O)NNc2ccnc3cc(Cl)ccc23)cc1 | 5840 nM | 5060 nM | 3020 nM | 8460 nM | – | – | – | – | – | –
6 | COc1cccc2c(N/N=C/c3ccc4ccccc4n3)cc(C)nc12 | 404 nM | 324 nM | 789 nM | 117 nM | – | – | – | – | – | –
7 | COc1ccc(/C=N/Nc2c3c(nc4ccccc24)CCCC3)cc1 | 942 nM | 2360 nM | – | – | – | – | – | – | – | –
8 | COc1ccc2nccc(N/N=C/c3ccc4ccccc4n3)c2c1 | 73 nM | 96 nM | 125 nM | 159 nM | – | – | – | – | – | –
9 | COc1cccc(/C=N/Nc2cc(C)nc3cc4c(cc23)OCO4)c1 | 197 nM | 229 nM | 4980 nM | – | – | – | – | – | – | –
10 | Oc1cc(/C=N/Nc2ccnc3cc(Cl)ccc23)ccc1CN1CCCC1 | 21.4 nM | 18.9 nM | 0.9 nM | 39.6 nM | 152000 nM | 71% | Active | – | – | –
11 | CCN(CC)c1ccc(/C=N/Nc2ccnc3ccc(OC)cc23)cc1 | 142 nM | 166 nM | 22.9 nM | 172 nM | – | – | – | – | – | –
12 | COc1ccc2nc3cc(Cl)ccc3c(N/N=C/c3ccc(CN4CCCC4)cc3)c2c1 | – | – | – | – | – | 19% | Active | – | – | –
13 | O=C(NNc1ccnc2cc(Cl)ccc12)c1ncc[nH]1 | 6470 nM | > 10000 nM | 5460 nM | > 10000 nM | – | – | – | – | – | –
14 | C(=N\Nc1ccnc2cc3c(cc12)OCO3)/c1ccc(CN2CCCC2)cc1 | 35.6 nM | 46.5 nM | 26.7 nM | 58 nM | – | – | – | – | – | –
15 | Clc1ccc2c(N/N=C/c3ccc(CN4CCCC4)cc3)ccnc2c1 | – | – | – | – | 19500 nM | 83% | Active | Dose-dependent effect | – | –
16 | COc1ccc2nccc(N/N=C/c3ccc4c(c3)OCO4)c2c1 | 132 nM | 197 nM | – | – | – | – | – | – | – | –
17 | COc1ccc(/C=N/Nc2ccnc3c(OC)cccc23)cc1 | 715 nM | 903 nM | 326 nM | 769 nM | – | – | – | – | – | –
18 | COc1ccc2nccc(N/N=C/c3ccc(CN4CCCC4)cc3)c2c1 | 24.8 nM | 99.4 nM | 16.7 nM | 86.1 nM | – | – | – | – | – | –
19 | CCOc1ccc2c(N/N=C/c3ccc(OC)cc3)cc(C)nc2c1 | 212 nM | 232 nM | 805 nM | 537 nM | – | – | – | – | – | –
20 | COc1ccc2nccc(N/N=C/c3ccc(N4CCCC4)cc3)c2c1 | 115 nM | 185 nM | 404 nM | 462 nM | – | – | – | – | – | –
21 | Cn1cncc1/C=N/Nc1ccnc2cc(Cl)ccc12 | 174 nM | 249 nM | 48.9 nM | 385 nM | 73800 nM | – | – | – | – | –
22 | Clc1ccc2c(N/N=C/c3ncc[nH]3)ccnc2c1 | 65.2 nM | 23.7 nM | 5.9 nM | 31.6 nM | 19500 nM | – | – | Dose-dependent effect | – | –
23 | CCN(CC)c1ccc(/C=N/Nc2ccnc3cc(Cl)ccc23)cc1 | 175 nM | 250 nM | 300 nM | – | – | – | – | – | – | –
24 | C(=N\Nc1c2c(nc3ccccc13)CCCC2)/c1ccc2c(c1)OCO2 | 618 nM | 923 nM | – | – | – | – | – | – | – | –

Row | Structure (SMILES) | IC50 (Plasmodium falciparum [1]) | IC50 (Plasmodium falciparum [2]) | IC50 (Plasmodium falciparum [3]) | IC50 (Plasmodium falciparum [4]) | EC50 (KB) | Activity (Plasmodium berghei [5]) | Activity (Mus musculus [6]) | Activity [7] | Activity (Plasmodium berghei [8]) | Activity (Mus musculus [9])
25 | COc1ccc(/C=N/Nc2c3c(nc4cc(Cl)ccc24)CCCC3)cc1 | 760 nM | 1330 nM | 930 nM | 2640 nM | – | – | – | – | – | –
26 | Cc1cccc(/C=N/Nc2ccnc3cc(Cl)ccc23)n1 | > 3000 nM | 760 nM | – | – | – | – | – | – | – | –
27 | Cc1cccc(/C=N/Nc2cc(C)nc3cc(Cl)ccc23)n1 | 1160 nM | 1310 nM | – | – | – | – | – | – | – | –
28 | CCN(CC)c1ccc(/C=N/Nc2c3c(nc4ccccc24)CCCC3)cc1 | 986 nM | 1470 nM | 1080 nM | – | – | – | – | – | – | –
29 | O=C(NNc1ccnc2cc(Cl)ccc12)c1c[nH]cn1 | > 10000 nM | > 10000 nM | 8830 nM | > 10000 nM | – | – | – | – | – | –
30 | CCN(CC)CCCC(C)Nc1ccnc2cc(Cl)ccc12 (configuration not stated) [CHLOROQUINE] | – | – | – | – | 260000 nM | – | – | Dose-dependent effect | 98% | Active
31 | COc1ccc(/C=N/Nc2cc(C)nc3ccc(OC)cc23)cc1 | 103 nM | 150 nM | 31.1 nM | 62.3 nM | – | – | – | – | – | –
32 | Cc1cc(N/N=C/c2ccc3c(c2)OCO3)c2ccc(Cl)cc2n1 | 122 nM | 281 nM | – | – | – | – | – | – | – | –
33 | Clc1ccc2c(N/N=C/c3ccc(N4CCCC4)cc3)ccnc2c1 | 189 nM | 190 nM | 855 nM | 427 nM | – | – | – | – | – | –
34 | COc1ccc(/C=N/Nc2ccnc3ccc(OC)cc23)cc1 | – | – | 65.1 nM | – | – | 38% | – | – | – | –
35 | Clc1ccc2c(N/N=C/c3ccncc3)ccnc2c1 | 570 nM | 627 nM | – | – | – | – | – | – | – | –
36 | Clc1ccc2c(N/N=C/c3cccnc3)ccnc2c1 | 607 nM | 814 nM | – | – | – | – | – | – | – | –
37 | Clc1ccc2c(N/N=C/c3cccs3)ccnc2c1 | 504 nM | 855 nM | 167 nM | 577 nM | 10400 nM | – | – | – | – | –
38 | Clc1ccc2c(N/N=C/c3ccc[nH]3)ccnc2c1 | 210 nM | 256 nM | 25.8 nM | 53.1 nM | 4800 nM | – | – | – | – | –
39 | Cc1noc(C)c1/C=N/Nc1ccnc2cc(Cl)ccc12 | 347 nM | 509 nM | 125 nM | 2130 nM | 171000 nM | – | – | – | – | –
40 | Clc1ccc2c(N/N=C/c3ccc4c(c3)OCO4)ccnc2c1 | 184 nM | 203 nM | 400 nM | 30.7 nM | – | – | – | – | – | –
41 | COc1cc2ccccc2cc1/C=N/Nc1ccnc2cc(Cl)ccc12 | 145 nM | 169 nM | 31.8 nM | 63.7 nM | – | – | – | – | – | –
42 | FC(F)(F)c1ccc(-c2n[nH]cc2/C=N/Nc2ccnc3cc(Cl)ccc23)cc1 | 186 nM | 258 nM | 5 nM | 39.6 nM | 1200 nM | – | – | Dose-dependent effect | – | –
43 | CN(C)c1ccc(/C=N/Nc2ccnc3cc(Cl)ccc23)cc1 | 325 nM | 383 nM | 308 nM | 1140 nM | – | – | – | – | – | –
44 | COc1ccc2nc3cc(Cl)ccc3c(N/N=C/c3ncc[nH]3)c2c1 | – | – | – | – | 5100 nM | 40% | Active | – | – | –
45 | COc1ccc2c(N/N=C/c3ccc4ccccc4n3)ccnc2c1 | 108 nM | 140 nM | – | 213 nM | – | – | – | – | – | –
46 | Clc1ccc2c(N/N=C/c3ccco3)ccnc2c1 | 949 nM | 1390 nM | 169 nM | 824 nM | 19900 nM | – | – | Dose-dependent effect | – | –
47 | Cn1ccnc1/C=N/Nc1ccnc2cc(Cl)ccc12 | 197 nM | 86.9 nM | 61.5 nM | 270 nM | 17100 nM | – | – | – | – | –
48 | CCN(CC)c1ccc(/C=N/Nc2ccnc3c(OC)cccc23)cc1 | 442 nM | 791 nM | 206 nM | 125 nM | – | – | – | – | – | –
